Test results taken from PubChem BioAssay (NCI).
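1) Cells in 96-well plates. 2) Compound, 48 h, 5 concentrations. 3) Linear interpolation between surrounding doses. 4) Unreached endpoint = highest concentration. At the GI50, growth is halved. TGI: concentration producing complete growth inhibition.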

Key:
Test in all cases: NCI-60 cell line screen, 48 h
[1] = system: OVCAR-8 ovarian
[2] = system: HCT-15 colon
[3] = system: HOP-62 NSCLC
[4] = system: KM12 colon
[5] = system: SK-MEL-2 melanoma
[6] = system: NCI/ADR-RES ovarian
[7] = system: EKVX NSCLC
[8] = system: UACC-257 melanoma
[9] = system: SN12C renal
[10] = system: SF-295 CNS
[11] = system: SK-OV-3 ovarian
[12] = system: UACC-62 melanoma
[13] = system: IGROV1 ovarian
[14] = system: MALME-3M melanoma
[15] = system: SR leukemia
[16] = system: CCRF-CEM leukemia
[17] = system: T-47D breast
[18] = system: DU-145 prostate
[19] = system: A498 renal
[20] = system: K-562 leukemia
[21] = system: LOX IMVI melanoma
[22] = system: 786-0 renal
[23] = system: OVCAR-4 ovarian
[24] = system: HCT-116 colon
[25] = system: NCI-H226 lung
[26] = system: CAKI-1 renal
[27] = system: SF-539 CNS
[28] = system: NCI-H23 lung
[29] = system: SNB-75 CNS
[30] = system: COLO 205 colon
[31] = system: HOP-92 NSCLC
[32] = system: SNB-19 CNS
[33] = system: OVCAR-3 ovarian
[34] = system: PC-3 prostate
[35] = system: HT29 colon
[36] = system: U251 CNS
[37] = system: HS 578T breast
[38] = system: SK-MEL-5 melanoma
[39] = system: MOLT-4 leukemia
[40] = system: RXF 393 renal
[41] = system: HL-60(TB) leukemia
[42] = system: ACHN renal
[43] = system: MDA-MB-435
[44] = system: MCF7 breast
[45] = system: HCC-2998 colon
[46] = system: SW-620 colon
[47] = system: MDA-MB-231 breast
[48] = system: SF-268 CNS
[49] = system: BT-549 breast
[50] = system: NCI-H460 lung
[51] = system: NCI-H522 lung
[52] = system: A549 NSCLC
[53] = system: OVCAR-5 ovarian
[54] = system: TK-10 renal
[55] = system: SK-MEL-28 melanoma
[56] = system: UO-31 renal
[57] = system: RPMI-8226 leukemia

Work on `C#CCN(C)CCCOc1ccc(NC(=O)CCCCCCC(=O)NO)cc1Cl` yielded a GI50 [1] of 0.793 µM, a TGI [1] of over 100 µM and a GI50 [2] of 5.03 µM. The TGI [2] was over 100 µM, the GI50 [3] was 1.85 µM and the TGI [3] was 24 µM. The GI50 [4] was 1.91 µM, the TGI [4] was 15.9 µM and the GI50 [5] was 3.05 µM. For the same compound, the TGI [5] was 21.8 µM, the GI50 [6] was 5.41 µM and the TGI [6] was over 100 µM. The GI50 [7] was 3.47 µM, the TGI [7] was over 100 µM and the GI50 [8] was 0.587 µM. For the same compound, the TGI [8] was 13.4 µM, the GI50 [9] was 2.78 µM and the TGI [9] was over 100 µM. The GI50 [10] was 1.68 µM, the TGI [10] was 4.71 µM and the GI50 [11] was 1.54 µM. For the same compound, the TGI [11] was 12.6 µM, the GI50 [12] was 0.57 µM and the TGI [12] was 4.18 µM. For the same compound, the GI50 [13] was 1.23 µM, the TGI [13] was 4.34 µM and the GI50 [14] was 0.373 µM. The TGI [14] was 28.4 µM, the GI50 [15] was 0.53 µM and the TGI [15] was over 100 µM. The GI50 [16] was 0.375 µM, the TGI [16] was over 100 µM and the GI50 [17] was 0.608 µM. The TGI [17] was over 100 µM, the GI50 [18] was 1.68 µM and the TGI [18] was over 100 µM. It also gave a GI50 [19] of 1.16 µM, a TGI [19] of 3.04 µM and a GI50 [20] of 0.549 µM. It also gave a TGI [20] of over 100 µM, a TGI [21] of 0.12 µM and a GI50 [22] of 3.52 µM. The TGI [22] was 25.7 µM, the GI50 [23] was 4.41 µM and the TGI [23] was over 100 µM. The GI50 [24] was 0.437 µM, the TGI [24] was 6.26 µM and the GI50 [25] was 4.13 µM. For the same compound, the TGI [25] was 30.6 µM, the GI50 [26] was 1.65 µM and the TGI [26] was 8.08 µM. The GI50 [27] was 1.66 µM, the TGI [27] was 17 µM and the GI50 [28] was 2.44 µM. It also gave a TGI [28] of 18.9 µM, a GI50 [29] of 0.606 µM and a TGI [29] of 32.1 µM. It also gave a GI50 [30] of 0.648 µM, a TGI [30] of 2.45 µM and a GI50 [31] of 0.725 µM. It also gave a TGI [31] of 4.56 µM, a GI50 [32] of 2.26 µM and a TGI [32] of 17.7 µM. For the same compound, the GI50 [33] was 1.48 µM, the TGI [33] was 13.2 µM and the GI50 [34] was 1.53 µM. For the same compound, the TGI [34] was over 100 µM, the GI50 [35] was 1.42 µM and the TGI [35] was 43 µM. For the same compound, the GI50 [36] was 1.41 µM, the TGI [36] was 7.21 µM and the GI50 [37] was 1.15 µM. For the same compound, the TGI [37] was 7.31 µM, the GI50 [38] was 0.853 µM and the TGI [38] was 2.43 µM. The GI50 [39] was 0.338 µM, the TGI [39] was over 100 µM and the GI50 [40] was 0.272 µM. It also gave a TGI [40] of 1.11 µM, a GI50 [41] of 0.589 µM and a TGI [41] of over 100 µM. For the same compound, the GI50 [42] was 2.82 µM, the TGI [42] was 12.7 µM and the GI50 [43] was 0.835 µM. It also gave a TGI [43] of 5.97 µM, a GI50 [44] of 0.813 µM and a TGI [44] of 17.4 µM. For the same compound, the GI50 [45] was 1.47 µM, the TGI [45] was 4.23 µM and the GI50 [46] was 0.698 µM. The TGI [46] was 4.31 µM, the GI50 [47] was 1.83 µM and the TGI [47] was 16.4 µM. For the same compound, the GI50 [48] was 2.92 µM, the TGI [48] was 16.4 µM and the GI50 [49] was 3.48 µM. The TGI [49] was 30 µM, the GI50 [50] was 1.1 µM and the TGI [50] was over 100 µM. For the same compound, the GI50 [51] was 0.431 µM, the TGI [51] was 8.2 µM and the GI50 [52] was 2.14 µM. It also gave a TGI [52] of 13.6 µM, a GI50 [53] of 1.7 µM and a TGI [53] of 45.7 µM. The GI50 [54] was 1.41 µM, the TGI [54] was 11 µM and the GI50 [55] was 1.44 µM. The TGI [55] was 11.3 µM, the GI50 [56] was 1.5 µM and the TGI [56] was 7.04 µM. It also gave a GI50 [57] of 1.05 µM and a TGI [57] of 6.78 µM.
